According to ChEMBL document CHEMBL1201862, “PubChem BioAssay data set” (2004):
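Exposure lasted 48 hours, with cells grown in 96-well plates and compounds tested at five concentrations. GI50: concentration for 50% inhibition of growth.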 Calls of active or inactive are those of the source. Rule as the data show it: active = GI50 up to about 1.1 µM and inactive = higher.

Legend:
Experiment in all cases: growth of human tumour cells (NCI), 48 h
786-0 = system: 786-0
A498 = system: A498
ACHN = system: ACHN
HCT-116 = system: HCT-116
IGROV-1 = system: IGROV-1
KM12 = system: KM12
MDA-MB-231 = system: MDA-MB-231
MDA-N = system: MDA-N
NCI-H522 = system: NCI-H522
OVCAR-3 = system: OVCAR-3
OVCAR-4 = system: OVCAR-4
PC-3 = system: PC-3
RPMI-8226 = system: RPMI-8226
SK-MEL-28 = system: SK-MEL-28
SK-OV-3 = system: SK-OV-3
SN12C = system: SN12C
SNB-19 = system: SNB-19
SNB-75 = system: SNB-75
TK-10 = system: TK-10
U-251 = system: U-251

Measured: GI50

CCc1c(Cl)c(C)cc(O)c1Cl
inactive: 786-0 38.2 µM | A498 18.8 µM | ACHN 22.1 µM | HCT-116 33.5 µM | IGROV-1 51.1 µM | KM12 22.6 µM | MDA-MB-231 40.7 µM | MDA-N 19.4 µM | NCI-H522 30.7 µM | OVCAR-3 52 µM | OVCAR-4 34.1 µM | PC-3 19.6 µM | RPMI-8226 24.1 µM | SK-MEL-28 58.3 µM | SK-OV-3 > 100 µM | SN12C 16.7 µM | SNB-19 38.7 µM | SNB-75 56.8 µM | TK-10 > 100 µM | U-251 15.6 µM

O=C1OC(=O)C2CCCC3CCCC1C32 (stereo not given)
inactive: 786-0 > 100 µM | A498 > 100 µM | ACHN > 100 µM | HCT-116 > 100 µM | IGROV-1 > 100 µM | KM12 > 100 µM | MDA-MB-231 > 100 µM | MDA-N > 100 µM | NCI-H522 > 100 µM | OVCAR-3 > 100 µM | OVCAR-4 > 100 µM | PC-3 > 100 µM | RPMI-8226 > 100 µM | SK-MEL-28 > 100 µM | SK-OV-3 > 100 µM | SN12C > 100 µM | SNB-19 > 100 µM | SNB-75 > 100 µM | TK-10 > 100 µM | U-251 > 100 µM

CC1C(=O)O[B-]2(c3ccccc3)Oc3ccccc3C=[N+]12 (stereo not given)
inactive: 786-0 > 100 µM | A498 > 100 µM | ACHN > 100 µM | HCT-116 > 100 µM | IGROV-1 > 100 µM | KM12 > 100 µM | MDA-MB-231 > 100 µM | MDA-N > 100 µM | NCI-H522 > 100 µM | OVCAR-3 > 100 µM | OVCAR-4 > 100 µM | PC-3 > 100 µM | RPMI-8226 > 100 µM | SK-MEL-28 > 100 µM | SK-OV-3 > 100 µM | SN12C > 100 µM | SNB-19 > 100 µM | SNB-75 72.1 µM | TK-10 > 100 µM | U-251 > 100 µM

CC1(O)CCC(C(C)(C)O)CC1 (stereo not given) [TERPIN]
inactive: 786-0 > 100 µM | A498 > 100 µM | ACHN > 100 µM | HCT-116 > 100 µM | IGROV-1 16.1 µM | KM12 > 100 µM | MDA-MB-231 > 100 µM | MDA-N > 100 µM | NCI-H522 > 100 µM | OVCAR-3 > 100 µM | OVCAR-4 > 100 µM | PC-3 > 100 µM | RPMI-8226 > 100 µM | SK-MEL-28 > 100 µM | SK-OV-3 > 100 µM | SN12C > 100 µM | SNB-19 > 100 µM | SNB-75 > 100 µM | TK-10 > 100 µM | U-251 > 100 µM
